Test results published in ChEMBL document CHEMBL5316291 (J Med Chem, 2023).

Columns and labels:
[1] = biological target: Poly [ADP-ribose] polymerase 1 (Homo sapiens, UniProt P09874); assay: Inhibition of human recombinant N-terminal GST-tagged PARP1 (2 to 1014 end residues) incubated for 1 hr by ELISA assay
[2] = Cytotoxicity against mouse AML12 cells assessed as inhibition of cell growth measured after 6 days by MTT assay; type: toxicity, cell-based
[3] = Apparent volume of distribution in ICR mouse at 1 mg/kg, iv measured upto 24 hrs by LC-MS/MS analysis; type: ADME, organism-based; conditions: in vivo, read-out: Vz

Poly [ADP-ribose] polymerase 1, sequence (P09874 whole entry): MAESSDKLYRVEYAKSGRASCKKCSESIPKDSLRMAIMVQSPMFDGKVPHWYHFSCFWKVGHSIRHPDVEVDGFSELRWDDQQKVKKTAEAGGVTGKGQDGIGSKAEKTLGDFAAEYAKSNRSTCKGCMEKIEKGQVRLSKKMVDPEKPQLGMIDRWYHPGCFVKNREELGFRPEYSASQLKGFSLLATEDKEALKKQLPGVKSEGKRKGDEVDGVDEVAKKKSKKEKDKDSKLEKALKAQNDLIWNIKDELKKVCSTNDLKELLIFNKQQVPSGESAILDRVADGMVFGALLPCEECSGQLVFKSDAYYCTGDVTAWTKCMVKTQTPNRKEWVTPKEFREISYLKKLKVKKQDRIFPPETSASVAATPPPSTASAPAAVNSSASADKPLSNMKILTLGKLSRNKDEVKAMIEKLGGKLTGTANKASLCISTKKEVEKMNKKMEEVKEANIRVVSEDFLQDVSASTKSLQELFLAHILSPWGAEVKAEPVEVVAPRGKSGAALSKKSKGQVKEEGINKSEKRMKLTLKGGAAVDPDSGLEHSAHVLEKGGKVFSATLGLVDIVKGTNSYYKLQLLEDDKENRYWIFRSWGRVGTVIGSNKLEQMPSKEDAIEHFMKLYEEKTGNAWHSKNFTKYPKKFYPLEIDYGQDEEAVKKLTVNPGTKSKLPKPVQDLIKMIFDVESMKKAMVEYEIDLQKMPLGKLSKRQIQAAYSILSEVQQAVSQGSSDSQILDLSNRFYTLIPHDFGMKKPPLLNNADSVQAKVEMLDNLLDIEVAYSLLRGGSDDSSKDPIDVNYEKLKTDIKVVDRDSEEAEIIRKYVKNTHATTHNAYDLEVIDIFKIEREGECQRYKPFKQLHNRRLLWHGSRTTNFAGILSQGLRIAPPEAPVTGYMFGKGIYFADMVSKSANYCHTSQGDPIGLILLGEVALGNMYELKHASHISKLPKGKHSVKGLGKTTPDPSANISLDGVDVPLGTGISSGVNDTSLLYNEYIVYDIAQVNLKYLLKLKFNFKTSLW

IC50 [1]: > 5 µM
Vd [3]: 3.66 L/kg
SMILES: C[C@@H](CN1CC(C(=O)N2CCN(c3ncc(C(F)(F)F)cn3)CC2)C1)Nc1cn[nH]c(=O)c1C(F)(F)F
IC50 at 6 days [2]: > 50 µM
